Experimental findings from patent US20260274892A1, “MACROCYCLIC BROAD SPECTRUM ANTIBIOTICS” (RQx Pharmaceuticals, Inc., priority 2017, published 2026) are described below.

The structures appear in SMILES notation.

The test system of test [1] is Methicillin Resistant Staphylococcus aureus strain USA 200. As to the kind of experiment: Minimum inhibitory concentration (MIC), CLSI broth micro-dilution, S. aureus. The format is cell-based. Conditions: Staphylococcus aureus, MRSA / USA200; Table 6; MRSA USA 200; cation adjusted Mueller Hinton Broth + 0.002% Tween-80; 35° C., 22 hours. As for the experimental part: In vitro antimicrobial activity of each compound was determined by measuring minimal inhibitor concentrations (MICs) using the broth micro-dilution technique as approved by the Clinical and Laboratory Standards Institute (CLSI) (Methods for Dilution Antimicrobial Susceptibility Tests for Bacteria that Grow Aerobically; Approved Standard-Eighth Edition. CLSI document M07-A8. Wayne, PA: Clinical and Laboratroy Standards; 2009). Antibacterial activity was measure against two strains of bacteria: a Methicillin Resistant Staphylococcus aureus strain USA 200, (S. aureus) and Escherichia coli ATCC 25922 (E. coli), a clinically relevant Gram-negative strain. Cells were inoculated onto plates of Trypyticase Soy Agar or Luria Agar respectively and grown at 35° C. for 20 hours. Inocula suspensions were prepared by scraping cells into 1 mL of testing media (cation adjusted Mueller Hinton Broth supplemented with 0.002% v/v Tween-80) and diluting to a final OD600nm of 0.01.
Test compounds were prepared in DMSO at a concentration of 10 mg/mL. In protocol 1, the compound stocks were diluted into testing media at a concentration of 64 µg/ml and serial 2-fold dilutions were made in the same media, in 96-well U bottom microtiter dishes, for a total of 10 compound concentrations. In protocol 2, the compound stocks were diluted into testing media at a concentration of 4 µg/mL and serial 2-fold dilutions were made in the same media, in 96-well U bottom microtiter dishes, for a total of 10 compound concentrations. In protocol 3, compound stocks were diluted into testing media at a concentration of 0.5 μg/mL, with serial 2-fold dilutions conducted as described above. In protocol 4, compound stocks were diluted into testing media at a concentration of […], with serial 2-fold dilutions conducted as described above. Inocula suspensions were added to the 2-fold serial dilutions of test compounds to a final density of GD OD600nm of 0.0005 and incubated at 35° C. for 22 hours.
A general note: In broth dilution the organism is exposed to a series of concentrations in liquid medium.

Test [2] relates to Escherichia coli ATCC 25922. As to the kind of experiment: Minimum inhibitory concentration (MIC), CLSI broth micro-dilution, E. coli. The format is cell-based. The settings on record: Escherichia coli, ATCC25922, 22 h, Table 6, cation adjusted Mueller Hinton Broth + 0.002% Tween-80, 35° C. Put shortly: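 Colonies grown 20 h at 35° C on Trypticase Soy agar (MRSA) or Luria agar (E. coli) were suspended in cation-adjusted Mueller Hinton broth with 0.002% Tween-80. Suspensions were added at OD600 0.0005 to 10-point twofold compound dilutions, then incubated 22 h at 35° C.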

Consider `CCCCc1ccc(-c2ccn(-c3ccc(C(=O)N[C@@H](CCN)C(=O)N(C)[C@@H]4C(=O)N[C@@H](C)C(=O)N[C@H](C(=O)NCC#N)Cc5ccc(OCCN)c(c5)-c5cc4ccc5OCCN)c(C)c3)n2)cc1` (racemic) [Compound 201, rac-(8S,11S,14S)-3,18-bis(2-aminoethoxy)-N-(cyanomethyl)-11-methyl-14-[methyl-[rac-(2S)-4-amino-2-[[4-[3-(4-butylphenyl)pyrazol-1-yl]-2-methyl-benzoyl]amino]butanoyl]amino]-10,13-dioxo-9,12-diazatricyclo[13.3.1.12,6]icosa-1(18),2(20),3,5,15(19),16-hexaene-8-carboxamide], for which the MIC – broadly, the lowest concentration that inhibits growth of the organism – in test [1] amounted to 0.062 µM; in test [2], 0.42 µM.
Turning to `Cc1cc(-c2ccc(S(F)(F)(F)(F)F)cc2)ccc1C(=O)N[C@@H](CCN)C(=O)N(C)[C@@H]1C(=O)N[C@@H](C)C(=O)N[C@H](C(=O)NCC#N)Cc2ccc(OCCN)c(c2)-c2cc1ccc2OCCN` (racemic) [Compound 202, rac-(8S,11S,14S)-3,18-bis(2-aminoethoxy)-N-(cyanomethyl)-11-methyl-14-[methyl-[rac-(2S)-4-amino-2-[[2-methyl-4-[4-(pentafluoro-lambda6-sulfanyl)phenyl]benzoyl]amino]butanoyl]amino]-10,13-dioxo-9,12-diazatricyclo[13.3.1.12,6]icosa-1(18),2(20),3,5,15(19),16-hexaene-8-carboxamide], the MIC was 0.023 µM in test [1] and 0.37 µM in test [2].
As for `Cc1cc(-c2ccc(C(C)(C)C)cc2)ccc1C(=O)N[C@@H](CCN)C(=O)N(C)[C@@H]1C(=O)N[C@@H](C)C(=O)N[C@H](C(=O)NCC#N)Cc2ccc(OCCN)c(c2)-c2cc1ccc2OCCN` (racemic) [Compound 203, rac-(8S,11S,14S)-3,18-bis(2-aminoethoxy)-N-(cyanomethyl)-11-methyl-14-[methyl-[rac-(2S)-4-amino-2-[[4-(4-tert-butylphenyl)-2-methyl-benzoyl]amino]butanoyl]amino]-10,13-dioxo-9,12-diazatricyclo[13.3.1.12,6]icosa-1(18),2(20),3,5,15(19),16-hexaene-8-carboxamide], the MIC came to 0.031 µM in test [1] and 0.13 µM in test [2].
For the compound `CCCCCCc1ncc(-c2ccc(C(=O)N[C@@H](CCN)C(=O)N(C)[C@@H]3C(=O)N[C@@H](C)C(=O)N[C@H](C(=O)NCC#N)Cc4ccc(OCCN)c(c4)-c4cc3ccc4OCCN)c(C)c2)cn1` (racemic) [Compound 204, rac-(8S,11S,14S)-3,18-bis(2-aminoethoxy)-N-(cyanomethyl)-11-methyl-14-[methyl-[rac-(2S)-4-amino-2-[[4-(2-hexylpyrimidin-5-yl)-2-methyl-benzoyl]amino]butanoyl]amino]-10,13-dioxo-9,12-diazatricyclo[13.3.1.12,6]icosa-1(18),2(20),3,5,15(19),16-hexaene-8-carboxamide], the figures for the MIC in test [1] and in test [2] were 0.032 µM and 2.1 µM, respectively.
On to `CCCCCc1ccc(-c2ccc(C(=O)N[C@@H](CCN)C(=O)N(C)[C@@H]3C(=O)N[C@@H](C)C(=O)N[C@H](C(=O)NCC#N)Cc4ccc(OCCN)c(c4)-c4cc3ccc4OCCN)c(C)n2)cc1` (racemic) [Compound 205, rac-(8S,11S,14S)-3,18-bis(2-aminoethoxy)-N-(cyanomethyl)-11-methyl-14-[methyl-[rac-(2S)-4-amino-2-[[2-methyl-6-(4-pentylphenyl)pyridine-3-carbonyl]amino]butanoyl]amino]-10,13-dioxo-9,12-diazatricyclo[13.3.1.12,6]icosa-1(18),2(20),3,5,15(19),16-hexaene-8-carboxamide], for which the MIC in test [1] came out at 0.012 µM; in test [2], 0.066 µM.
As to `Cc1nc(-c2ccc(C(C)(C)C)cc2)ccc1C(=O)N[C@@H](CCN)C(=O)N(C)[C@@H]1C(=O)N[C@@H](C)C(=O)N[C@H](C(=O)NCC#N)Cc2ccc(OCCN)c(c2)-c2cc1ccc2OCCN` (racemic) [Compound 206, rac-(8S,11S,14S)-3,18-bis(2-aminoethoxy)-N-(cyanomethyl)-11-methyl-14-[methyl-[rac-(2S)-4-amino-2-[[6-(4-tert-butylphenyl)-2-methyl-pyridine-3-carbonyl]amino]butanoyl]amino]-10,13-dioxo-9,12-diazatricyclo[13.3.1.12,6]icosa-1(18),2(20),3,5,15(19),16-hexaene-8-carboxamide], the MIC in test [1] was 0.025 µM; in test [2], 0.13 µM.
For `CCCCc1ccc(-c2ccc(C(=O)N[C@@H](CCN)C(=O)N(C)[C@@H]3C(=O)N[C@@H](C)C(=O)N[C@H](C(=O)NCC#N)Cc4ccc(OCCN)c(c4)-c4cc3ccc4OCCN)c(C)n2)cc1` (racemic) [Compound 207, rac-(8S,11S,14S)-3,18-bis(2-aminoethoxy)-N-(cyanomethyl)-11-methyl-14-[methyl-[rac-(2S)-4-amino-2-[[6-(4-butylphenyl)-2-methyl-pyridine-3-carbonyl]amino]butanoyl]amino]-10,13-dioxo-9,12-diazatricyclo[13.3.1.12,6]icosa-1(18),2(20),3,5,15(19),16-hexaene-8-carboxamide], the figures for the MIC in test [1] and in test [2] were 0.017 µM and 0.1 µM, respectively.
In the same order, the values of `CCCc1ccc(-c2ccc(C(=O)N[C@@H](CCN)C(=O)N(C)[C@@H]3C(=O)N[C@@H](C)C(=O)N[C@H](C(=O)NCC#N)Cc4ccc(OCCN)c(c4)-c4cc3ccc4OCCN)c(C)n2)cc1` (racemic) [Compound 208, rac-(8S,11S,14S)-3,18-bis(2-aminoethoxy)-N-(cyanomethyl)-11-methyl-14-[methyl-[rac-(2S)-4-amino-2-[[2-methyl-6-(4-propylphenyl)pyridine-3-carbonyl]amino]butanoyl]amino]-10,13-dioxo-9,12-diazatricyclo[13.3.1.12,6]icosa-1(18),2(20),3,5,15(19),16-hexaene-8-carboxamide] are 0.017 µM and 0.14 µM.
`CCCCCc1ncc(-c2ccc(C(=O)N[C@@H](CCN)C(=O)N(C)[C@@H]3C(=O)N[C@@H](C)C(=O)N[C@H](C(=O)NCC#N)Cc4ccc(OCCN)c(c4)-c4cc3ccc4OCCN)c(C)n2)cn1` (racemic) [Compound 209, rac-(8S,11S,14S)-3,18-bis(2-aminoethoxy)-N-(cyanomethyl)-11-methyl-14-[methyl-[rac-(2S)-4-amino-2-[[2-methyl-6-(2-pentylpyrimidin-5-yl)pyridine-3-carbonyl]amino]butanoyl]amino]-10,13-dioxo-9,12-diazatricyclo[13.3.1.12,6]icosa-1(18),2(20),3,5,15(19),16-hexaene-8-carboxamide]: the MIC stood at 0.26 µM in test [1] and 2.1 µM in test [2].
For `Cc1nc(C#CC(C)(C)C)ccc1C(=O)N[C@@H](CCN)C(=O)N(C)[C@@H]1C(=O)N[C@@H](C)C(=O)N[C@H](C(=O)NCC#N)Cc2ccc(OCCN)c(c2)-c2cc1ccc2OCCN` (racemic) [Compound 213, rac-(8S,11S,14S)-3,18-bis(2-aminoethoxy)-N-(cyanomethyl)-11-methyl-14-[methyl-[rac-(2S)-4-amino-2-[[6-(3,3-dimethylbut-1-ynyl)-2-methyl-pyridine-3-carbonyl]amino]butanoyl]amino]-10,13-dioxo-9,12-diazatricyclo[13.3.1.12,6]icosa-1(18),2(20),3,5,15(19),16-hexaene-8-carboxamide] the same measures were 0.28 µM and 1.1 µM.
Turning to `Cc1nc(C#CC2CCCCC2)ccc1C(=O)N[C@@H](CCN)C(=O)N(C)[C@@H]1C(=O)N[C@@H](C)C(=O)N[C@H](C(=O)NCC#N)Cc2ccc(OCCN)c(c2)-c2cc1ccc2OCCN` (racemic) [Compound 214, rac-(8S,11S,14S)-3,18-bis(2-aminoethoxy)-N-(cyanomethyl)-11-methyl-14-[methyl-[rac-(2S)-4-amino-2-[[6-(2-cyclohexylethynyl)-2-methyl-pyridine-3-carbonyl]amino]butanoyl]amino]-10,13-dioxo-9,12-diazatricyclo[13.3.1.12,6]icosa-1(18),2(20),3,5,15(19),16-hexaene-8-carboxamide], the MIC is 0.034 µM in test [1] and 0.41 µM in test [2].
